# Results taken from patent US20250282828A1, “PEPTIDES FOR THE TREATMENT OF RESPIRATORY INFECTIONS OF VIRAL ORIGIN” (CENTRO DE INGENIERÍA GENÉTICA Y BIOTECNOLOGÍA, priority 2020, published 2025).
# Read-outs that look alike come from different tables or passages of the source. Non-standard residues stand in square brackets, D forms with d. Residues, ends and D or L forms follow the SMILES beside them. No end group written: not given here.
# Legend:
# AdV 7 Gomen strain = assay: Adenovirus type 7 replication in bronchial HAE (qPCR); type: cell-based; conditions: 50 μM, 24 hours
# [1] = test system: herpes simplex virus type 1 (HSV-1); assay: HSV-1 replication in primary explants of human nasal mucosa (qPCR); type: cell-based; conditions: 50 μM, 36 hours
# Procedure: The replication of herpes simplex virus type 1 (HSV-1) was performed in primary explants of human nasal mucosa, according to Glorieux et al. (Glorieux et al. 2011, PLoS ONE, 6(7): e22160, doi: 10.1371/journal.pone.0022160). […] Afterwards, the cultures were washed and kept at 37° C. and 5% CO2 for 36 hours, in presence of the peptides in culture medium. The cultures were harvested, and HSV-1 was quantified by qPCR. The percentages of viral inhibition ranged from 70 to 92% in presence of the peptides (Table 5).
# [2] = test system: respiratory syncytial virus (RSV); assay: Respiratory syncytial virus replication in bronchial HAE (RT-qPCR); type: cell-based; conditions: 50 μM, 10 days
# Influenza A H1N1 = type: cell-based; conditions: 50 μM; tracheo-bronchial HAE
# human bocavirus (HBoV) = assay: Human bocavirus replication in tracheal HAE (qPCR NS1 region); type: cell-based; conditions: 50 μM, 72 hours
# SARS-CoV-2 [3] = test system: SARS-CoV-2
# Dengue 2 virus = Dengue 2 virus replication in primary cultures of lung cells (PFU in VeroE6); type: cell-based; conditions: 48 hours
# Procedure: The cultures were treated with the peptides for 2 or 24 hours, at concentrations of 0.01 to 100 μM before viral challenge. The medium was discarded and the cells were infected with Dengue 2 virus, at an MOI of 10 for 2 hours at 37° C. and 5% CO2. The virus was eliminated, a wash was then performed and the cultures were treated again with peptides in DMEM medium, and incubated for 48 hours at 37° C. and 5% CO2. Subsequently, the cultures were collected to assess viral performance on VeroE6 cells. For this, the cells were seeded in 24-well plates and when they reached confluence they were infected with serial 10-fold dilutions of the supernatants, incubated for 1 hour at 37° C. and 5% CO2. Next, a wash was carried out with PBS, and a layer of agar in 2× DMEM (1:1) added. The layer was allowed to solidify and incubated for 48 hours at 37° C. 5% CO2. The plates were stained with crystal violet, for the determination of the number of PFUs. The peptides inhibited between 68 and 88% of viral replication (Table 5).
# SARS-CoV-2 [4] = test system: SARS-CoV-2; remark: listed apart in the source
# SARS-CoV-2 [5] = assay: microbe, parasite or virus in culture; conditions: Severe acute respiratory syndrome coronavirus 2, Vero C1008, read-out: IC50 Compound
# SARS-CoV-2 [6] = conditions: VeroE6
# ZIKV E protein (Zika) = target: T1, ZIKV E protein (Zika) (Zika virus, UniProt A0A024B7W1); assay: BIACORE surface plasmon resonance interaction with immobilized peptide; type: binding
# T1 construct: the envelope protein of the Zika virus (ZIKV E)
# Protein N (SARS-CoV-2) = Protein N (SARS-CoV-2) (Severe acute respiratory syndrome coronavirus 2, UniProt P0DTC9); assay: as above; type: binding; conditions: analyte 10-200 nM
# [7] = test system: capsid protein of the Influenza H1N1 virus; assay: as above; type: binding
# [8] = test system: Parainfluenza virus type 3 (HPIV3); type: cell-based; conditions: 50 μM; HAE, 3 days
# [9] = target: T2, Dengue 2 virus capsid protein (Dengue virus type 2, UniProt P29990); assay: BIACORE surface plasmon resonance interaction with immobilized peptide; type: binding
# T2 construct: with the Dengue 2 virus capsid protein
# NS1-D2 (Dengue) = target: T3, NS1-D2 (Dengue) (Dengue virus type 2, UniProt P29990); assay: as above; type: binding, Dengue virus 2
# T3 construct: the non-structural protein 1 of the Dengue virus 2 (NS1-D2)
# T3 sequence (P29990 776-1127 limits assumed): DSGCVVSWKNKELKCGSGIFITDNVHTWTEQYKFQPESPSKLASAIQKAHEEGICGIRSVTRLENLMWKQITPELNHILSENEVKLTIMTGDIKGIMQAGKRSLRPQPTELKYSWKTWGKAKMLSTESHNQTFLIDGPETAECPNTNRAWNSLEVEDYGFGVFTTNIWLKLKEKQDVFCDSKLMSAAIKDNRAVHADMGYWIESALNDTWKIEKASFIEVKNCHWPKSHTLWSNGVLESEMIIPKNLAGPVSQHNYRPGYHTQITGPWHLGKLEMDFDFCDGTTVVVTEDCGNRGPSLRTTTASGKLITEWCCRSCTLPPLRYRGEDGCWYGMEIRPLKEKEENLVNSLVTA
# T1 sequence (A0A024B7W1 291-794): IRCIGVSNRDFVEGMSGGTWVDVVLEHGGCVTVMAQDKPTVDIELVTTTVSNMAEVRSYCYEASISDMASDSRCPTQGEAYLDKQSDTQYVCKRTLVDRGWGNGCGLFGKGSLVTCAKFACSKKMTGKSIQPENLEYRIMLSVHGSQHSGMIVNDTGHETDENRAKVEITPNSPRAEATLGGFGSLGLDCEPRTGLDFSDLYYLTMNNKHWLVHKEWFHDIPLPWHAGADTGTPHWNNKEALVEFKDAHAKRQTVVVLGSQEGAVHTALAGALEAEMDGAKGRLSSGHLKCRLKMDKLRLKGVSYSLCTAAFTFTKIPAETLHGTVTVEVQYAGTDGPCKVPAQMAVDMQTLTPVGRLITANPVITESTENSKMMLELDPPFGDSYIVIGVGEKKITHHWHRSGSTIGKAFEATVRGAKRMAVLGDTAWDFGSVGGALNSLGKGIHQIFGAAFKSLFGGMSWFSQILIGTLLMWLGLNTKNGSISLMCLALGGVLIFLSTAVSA
# T2 sequence (P29990 1-100 limits assumed): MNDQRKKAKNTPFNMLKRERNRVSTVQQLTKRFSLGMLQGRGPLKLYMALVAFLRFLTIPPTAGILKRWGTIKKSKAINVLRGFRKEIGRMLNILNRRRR
compound,measurement,setting,value
CSCC[C@H](NC(=O)[C@H](CCC(N)=O)NC(=O)[C@@H](NC(=O)[C@@H](NC(=O)[C@H](CCCNC(=N)N)NC(C)=O)C(C)C)[C@@H](C)O)C(=O)N[C@H](CC(N)=O)C(=O)N[C@@H](CC(C)C)C(=O)N[C@@H](CC(N)=O)C(=O)N[C@@H](CC(=O)O)C(=O)N[C@@H](CCCNC(=N)N)C(=O)N[C@@H](CC(C)C)C(=O)N[C@@H](C)C(=O)N[C@@H](CO)C(=O)N[C@@H](CC(C)C)C(=O)N[C@@H](Cc1ccc(O)cc1)C(=O)N[C@@H](CC(=O)O)C(=O)N[C@@H](CCCCN)C(=O)N[C@H](C(=O)O)C(C)C [SEQ ID NO: 3] (Ac-RVTQM[dN]LNDRLASLYDKV-OH; C-terminus assumed),Adenovirus Ad7 Inhib. %,AdV 7 Gomen strain,82%
same,Herpes simplex HSV-1 Inhib. %,[1],73%
same,Sincitial respiratory virus Inhib. %,[2],87%
same,Influenza A H1N1 Inhib. %,Influenza A H1N1,93%
same,Bocavirus HBoV-1 Inhib. %,human bocavirus (HBoV),80%
same,Inhibition %,"SARS-CoV-2 [3]; 96 h, 100 μM",85.4%
"SEQ ID NO: 19: synthetic peptide related to SEQ ID NO: 1, obtained by solid phase synthesis (RVTQMNLNDRLASLYDKV; Description of the Artificial Sequence synthetic peptide where N6 is a D amino acid)",Dengue 2 Inhib. %,Dengue 2 virus; 50 μM,68%
same,Bronchial HAE Inhibition %,SARS-CoV-2 [4]; 100 µM,86%
same,Nasal HAE Inhibition %,SARS-CoV-2 [4]; 100 µM,82%
same,Sincitial respiratory virus Inhib. %,[2],75%
same,Influenza A H1N1 Inhib. %,Influenza A H1N1,67%
same,Bocavirus HBoV-1 Inhib. %,human bocavirus (HBoV),85%
same,Inhibition %,SARS-CoV-2 [3]; 50 µM,91.8%
N=C(N)c1ccc2cc(OC(=O)c3ccc(N=C(N)N)cc3)ccc2c1 [Nafamostat],IC50,SARS-CoV-2 [5],20100 nM
RVTQMNANDRLASLYDKV [SEQ ID NO: 9],Adenovirus Ad7 Inhib. %,AdV 7 Gomen strain,79%
same,Influenza A H1N1 Inhib. %,Influenza A H1N1,89%
same,Bocavirus HBoV-1 Inhib. %,human bocavirus (HBoV),75%
same,Inhibition %,"SARS-CoV-2 [3]; 96 h, 100 μM",83.7%
Ivermectin,IC50,"SARS-CoV-2 [6]; read-out: IC50 Compound + peptide SEQ ID NO: 1, in presence of peptide SEQ ID NO: 1 at 10 μM",210 nM
same,IC50,"SARS-CoV-2 [6]; read-out: IC50 Compound + peptide SEQ ID NO: 2, in presence of peptide SEQ ID NO: 2",150 nM
same,IC50,"SARS-CoV-2 [6]; read-out: IC50 Compound + peptide SEQ ID NO: 3, in presence of peptide SEQ ID NO: 3",200 nM
same,IC50,"SARS-CoV-2 [6]; read-out: IC50 Compound, compound alone",2700 nM
CCC(CC)COC(=O)[C@H](C)N[P@](=O)(OC[C@H]1O[C@@](C#N)(c2ccc3c(N)ncnn23)[C@H](O)[C@@H]1O)Oc1ccccc1 [Remdisivir],IC50,SARS-CoV-2 [5],2400 nM
Ac-RVTQMNLNDRLASLYDKV [SEQ ID NO: 2],Kd,ZIKV E protein (Zika),18200 nM
same,interaction,ZIKV E protein (Zika),showed interaction
same,Dengue 2 Inhib. %,Dengue 2 virus; 50 μM,88%
same,Kd,Protein N (SARS-CoV-2),523 nM
same,Bronchial HAE Inhibition %,"SARS-CoV-2 [4]; 72 h, 50 μM",90%
same,Nasal HAE Inhibition %,"SARS-CoV-2 [4]; 72 h, 50 μM",80%
same,Sincitial respiratory virus Inhib. %,[2],83%
same,Kd,[7],24.3 nM
same,interaction,[7],showed interaction
same,Influenza A H1N1 Inhib. %,Influenza A H1N1,90%
same,Parainfluenza Type 3 Inhib. %,[8],89%
same,Inhibition %,"SARS-CoV-2 [3]; 96 h, 50 μM",95.1%
same,Kd,[9],754 nM
same,interaction,NS1-D2 (Dengue),showed interaction
RVTAMNLNDRLASLYDKV [SEQ ID NO: 7],Adenovirus Ad7 Inhib. %,AdV 7 Gomen strain,69%
same,Dengue 2 Inhib. %,Dengue 2 virus; 100 μM,87%
same,Influenza A H1N1 Inhib. %,Influenza A H1N1,70%
same,Inhibition %,"SARS-CoV-2 [3]; 96 h, 100 μM",92.4%
NC(=O)c1ncn([C@@H]2O[C@H](CO)[C@@H](O)[C@H]2O)n1 [Ribavirin],IC50,SARS-CoV-2 [5],40200 nM
